Assay results published in patent publication US9920088B2, “Triterpene derivative and its anti-influenza use” (Peking University, priority 2012, dated 2018).

Columns and labels:
[1] = system: influenza virus A/WSN/33(H1N1); test: Cytopathic effect (CPE) inhibition assay, WSN virus in MDCK cells; type: cell-based; conditions: for Viral Infectivity (%): lower = better inhibition; for anti-influenza virus activity: WSN, CPE; for inhibition at 50 µM: MDCK, Table 9, protective rate against cytopathy, read-out: IAV inhibition rate (%)
MDCK cells = conditions: dog, 48 h, 50 μM
[2] = Table 6, 50 μM, WSN MOI=1, 48 h
[3] = Table 8, 50 μM, WSN MOI=1, 48 h

Row | Compound | Viral Infectivity (%) [1, 2] [%] | anti-influenza virus activity ([1]; 50 μM) | Cell viability(%) (MDCK cells) | also measured
1 | CC(=O)OCC1O[C@H](OC(=O)[C@]23CCC(C)(C)C[C@H]2C2=CC[C@@H]4[C@@]5(C)CC[C@H](O)C(C)(C)C5CC[C@@]4(C)[C@]2(C)CC3O)C(OC(C)=O)C(OC(C)=O)[C@H]1OC(C)=O (stereo partly drawn) [Compound Q1, 3β,16α-dihydroxy-olean-12-en-28-oic acid-28-O-(2,3,4,6-tetra-O-acetyl-β-D-glucoside)] | 78.7 | some anti-influenza virus activity | 110.2 | –
2 | CC1(C)CC[C@]2(C(=O)O[C@H]3OC(CO)[C@H](O)C(O)C3O)C(O)C[C@]3(C)C(=CC[C@@H]4[C@@]5(C)CC[C@H](O)C(C)(C)C5CC[C@]43C)[C@@H]2C1 (stereo partly drawn) [Compound Q2, 3β,16α-dihydroxy-olean-12-en-28-oic acid-28-O-(β-D-glucoside)] | 76.2 | some anti-influenza virus activity | 101.1 | –
3 | CC(=O)OC1C(OC(C)=O)[C@@H](OC(C)=O)CO[C@@H]1OC(=O)[C@]12CCC(C)(C)C[C@H]1C1=CC[C@@H]3[C@@]4(C)CC[C@H](O)C(C)(C)[C@@H]4CC[C@@]3(C)[C@]1(C)CC2O (stereo partly drawn) [Compound Q3, 3β,16α-dihydroxy-olean-12-en-28-oic acid-28-O-(2,3,4-tri-O-acetyl-β-D-xyloside)] | 71.1 | some anti-influenza virus activity | 100.4 | –
4 | CC1(C)CC[C@]2(C(=O)O[C@H]3OC[C@H](O)C(O)C3O)C(O)C[C@]3(C)C(=CC[C@@H]4[C@@]5(C)CC[C@H](O)C(C)(C)[C@@H]5CC[C@]43C)[C@@H]2C1 (stereo partly drawn) [Compound Q4, 3β,16α-dihydroxy-olean-12-en-28-oic acid-28-O-(β-D-xyloside)] | – | – | 0.1 | –
5 | CC(=O)OC1C(OC(C)=O)[C@H](OC(C)=O)CO[C@@H]1OC(=O)[C@]12CCC(C)(C)C[C@H]1C1=CC[C@@H]3[C@@]4(C)CC[C@H](O)C(C)(C)[C@@H]4CC[C@@]3(C)[C@]1(C)CC2O (stereo partly drawn) [Compound Q5, 3β,16α-dihydroxy-olean-12-en-28-oic acid-28-O-(2,3,4-tri-O-acetyl-β-D-arabinoside)] | 107.5 | – | 100.9 | –
6 | CC1(C)CC[C@]2(C(=O)O[C@H]3OC[C@@H](O)C(O)C3O)C(O)C[C@]3(C)C(=CC[C@@H]4[C@@]5(C)CC[C@H](O)C(C)(C)[C@@H]5CC[C@]43C)[C@@H]2C1 (stereo partly drawn) [Compound Q6, 3β,16α-dihydroxy-olean-12-en-28-oic acid-28-O-(β-D-arabinoside)] | – | – | 38.4 | –
7 | CC(=O)OCC1O[C@H](OC(=O)[C@]23CCC(C)(C)C[C@H]2C2=CC[C@@H]4[C@@]5(C)CC[C@H](O)C(C)(C)[C@@H]5CC[C@@]4(C)[C@]2(C)CC3O)C(OC(C)=O)C(OC(C)=O)[C@@H]1OC(C)=O (stereo partly drawn) [Compound Q8, 3β,16α-dihydroxy-olean-12-en-28-oic acid-28-O-(2,3,4,6-tetra-O-acetyl-α-D-galactoside)] | 109.7 | – | 102.6 | –
8 | CC1(C)CC[C@]2(C(=O)O[C@H]3OC(CO)[C@H](O[C@H]4OC(CO)[C@@H](O)C(O)C4O)C(O)C3O)C(O)C[C@]3(C)C(=CC[C@@H]4[C@@]5(C)CC[C@H](O)C(C)(C)[C@@H]5CC[C@]43C)[C@@H]2C1 (stereo partly drawn) [Compound Q11, 3β,16α-dihydroxy-olean-12-en-28-oic acid-28-O-(β-D-lactoside)] | 82.6 | some anti-influenza virus activity | 92.8 | –
9 | CC(=O)OCC1O[C@@H](O[C@H]2C(COC(C)=O)O[C@H](OC(=O)[C@]34CCC(C)(C)C[C@H]3C3=CC[C@@H]5[C@@]6(C)CC[C@H](O)C(C)(C)[C@@H]6CC[C@@]5(C)[C@]3(C)CC4O)C(OC(C)=O)C2OC(C)=O)C(OC(C)=O)C(OC(C)=O)[C@H]1OC(C)=O (stereo partly drawn) [Compound Q12, 3β,16α-dihydroxy-olean-12-en-28-oic acid-28-O-(hepta-O-acetyl-β-D-maltoside)] | 80.1 | some anti-influenza virus activity | 93.3 | –
10 | CC1(C)CC[C@]2(C(=O)O[C@H]3OC(CO)[C@H](O[C@@H]4OC(CO)[C@H](O)C(O)C4O)C(O)C3O)C(O)C[C@]3(C)C(=CC[C@@H]4[C@@]5(C)CC[C@H](O)C(C)(C)[C@@H]5CC[C@]43C)[C@@H]2C1 (stereo partly drawn) [Compound Q13, 3β,16α-dihydroxy-olean-12-en-28-oic acid-28-O-(β-D-maltoside)] | 115.5 | – | 91.7 | –
11 | CC1(C)CC[C@]2(C(=O)O[C@H]3OC(CO)[C@H](O[C@H]4OC(CO)[C@H](O)C(O)C4O)C(O)C3O)C(O)C[C@]3(C)C(=CC[C@@H]4[C@@]5(C)CC[C@H](O)C(C)(C)[C@@H]5CC[C@]43C)[C@@H]2C1 (stereo partly drawn) [Compound Q14, 3β,16α-dihydroxy-olean-12-en-28-oic acid-28-O-(β-D-cellobioside)] | 154.4 | – | 98.3 | –
12 | CC(=O)OCC1O[C@H](NC(=O)[C@]23CCC(C)(C)CC2C2=CCC4[C@@]5(C)CC[C@H](O)C(C)(C)C5CC[C@@]4(C)[C@]2(C)C[C@H]3O)C(OC(C)=O)C(OC(C)=O)[C@@H]1OC(C)=O (stereo partly drawn) [Compound Y1, 3β,16α-dihydroxy-olean-12-en-28-oic acid-28-N-(2,3,4,6-tetra-O-acetyl-β-D-galactoside)] | – | significant anti-influenza virus activity | – | Viral Infectivity (%) [1, 3]: 16.4%; Cell viability (%) (MDCK cells): 84.8%
13 | CC(=O)OCC1O[C@H](NC(=O)[C@]23CCC(C)(C)CC2C2=CCC4[C@@]5(C)CCC(=O)C(C)(C)C5CC[C@@]4(C)[C@]2(C)CC3=O)C(OC(C)=O)C(OC(C)=O)[C@@H]1OC(C)=O (some centres unmarked) [Compound Y3] | – | significant anti-influenza virus activity | – | Viral Infectivity (%) [1, 3]: 16.3%; Cell viability (%) (MDCK cells): 80.8%
14 | CC1(C)CC[C@]2(C(=O)N[C@H]3OC(CO)[C@@H](O)C(O)C3O)C(=O)C[C@]3(C)C(=CCC4[C@@]5(C)CCC(=O)C(C)(C)C5CC[C@]43C)C2C1 (stereo partly drawn) [Compound Y4, 3,16-dione-olean-12-en-28-oic acid-28-N-(β-D-galactoside)] | – | – | – | Viral Infectivity (%) [1, 3]: 31.1%; Cell viability (%) (MDCK cells): 98.5%
15 | CC(=O)OCC1O[C@H](NC(=O)[C@]23CCC(C)(C)CC2C2=CCC4[C@@]5(C)CC[C@H](O)C(C)(C)C5CC[C@@]4(C)[C@]2(C)CC3)C(OC(C)=O)C(OC(C)=O)[C@H]1OC(C)=O (stereo partly drawn) [Compound Y7, 3β-hydroxy-olean-12-en-28-oic acid-28-N-(2,3,4,6-tetra-O-acetyl-β-D-mannoside)] | – | significant anti-influenza virus activity | – | Viral Infectivity (%) [1, 3]: 17.4%; Cell viability (%) (MDCK cells): 82.3%
16 | CC1(C)CC[C@]2(C(=O)N[C@H]3OC(CO)[C@H](O)C(O)C3O)CC[C@]3(C)C(=CCC4[C@@]5(C)CC[C@H](O)C(C)(C)C5CC[C@]43C)C2C1 (stereo partly drawn) [Compound Y8, 3β-hydroxy-olean-12-en-28-oic acid-28-N-(β-D-galactoside)] | – | significant anti-influenza virus activity | – | Viral Infectivity (%) [1, 3]: 19.5%; Cell viability (%) (MDCK cells): 85.0%
17 | CC(=O)OCC1O[C@H](NC(=O)[C@]23CCC(C)(C)CC2C2=CCC4[C@@]5(C)CCC(=O)C(C)(C)C5CC[C@@]4(C)[C@]2(C)CC3)C(OC(C)=O)C(OC(C)=O)[C@@H]1OC(C)=O (stereo partly drawn) [Compound Y9, 3-carbonyl-olean-12-en-28-oic acid-28-N-(2,3,4,6-tetra-O-acetyl-β-D-galactoside)] | – | – | – | inhibition at 50 µM ([1]; 50 μM): 32.2 ± 1.81%
18 | CC1(C)CC[C@]2(C(=O)N[C@H]3OC(CO)[C@@H](O)C(O)C3O)CC[C@]3(C)C(=CCC4[C@@]5(C)CCC(=O)C(C)(C)C5CC[C@]43C)C2C1 (stereo partly drawn) [Compound Y10, 3-carbonyl-olean-12-en-28-oic acid-28-N-(β-D-galactoside)] | – | – | – | inhibition at 50 µM ([1]; 50 μM): 4.84 ± 3.08%
19 | CC(=O)OCC1O[C@H](NC(=O)[C@]23CCC(C)(C)CC2C2=CCC4[C@@]5(C)CC[C@H](O)C(C)(C)C5CC[C@@]4(C)[C@]2(C)C[C@H]3O)C(OC(C)=O)C(OC(C)=O)[C@H]1OC(C)=O (stereo partly drawn) [Compound Y11, 3β,16α-dihydroxy-olean-12-en-28-oic acid-28-N-(2,3,4,6-tetra-O-acetyl-β-D-mannoside)] | – | – | – | inhibition at 50 µM ([1]; 50 μM): 26.8 ± 3.46%
20 | CC(=O)OCC1O[C@H](NC(=O)[C@]23CC[C@@H](C)[C@H](C)C2C2=CCC4[C@@]5(C)CC[C@H](O)C(C)(C)C5CC[C@@]4(C)[C@]2(C)C[C@H]3O)C(OC(C)=O)C(OC(C)=O)[C@@H]1OC(C)=O (stereo partly drawn) [Compound Y13, 3β-hydroxy-urs-12-en-28-oic acid-28-N-(2,3,4,6-tetra-O-acetyl-β-D-galactoside)] | – | significant anti-influenza virus activity higher than Q9 | – | inhibition at 50 µM ([1]; 50 μM): 76.9 ± 5.53%
21 | C[C@@H]1CC[C@]2(C(=O)N[C@H]3OC(CO)[C@@H](O)C(O)C3O)CC[C@]3(C)C(=CCC4[C@@]5(C)CC[C@H](O)C(C)(C)C5CC[C@]43C)C2[C@H]1C (stereo partly drawn) [Compound Y14, 3β-hydroxy-urs-12-en-28-oic acid-28-N-(β-D-galactoside)] | – | significant anti-influenza virus activity higher than Q9 | – | inhibition at 50 µM ([1]; 50 μM): 62.2 ± 2.96%
22 | CC(=O)OCC1O[C@H](NC(=O)[C@]23CC[C@@H](C)[C@H](C)C2C2=CCC4[C@@]5(C)CC[C@H](O)C(C)(C)C5CC[C@@]4(C)[C@]2(C)CC3)C(OC(C)=O)C(OC(C)=O)[C@H]1OC(C)=O (stereo partly drawn) [Compound Y15, 3β-hydroxy-urs-12-en-28-oic acid-28-N-(2,3,4,6-tetra-O-acetyl-β-D-mannoside)] | – | – | – | inhibition at 50 µM ([1]; 50 μM): 39.8 ± 3.6%
23 | C[C@@H]1CC[C@]2(C(=O)N[C@H]3OC(CO)[C@H](O)C(O)C3O)CC[C@]3(C)C(=CCC4[C@@]5(C)CC[C@H](O)C(C)(C)C5CC[C@]43C)C2[C@H]1C (stereo partly drawn) [Compound Y16, 3β-hydroxy-urs-12-en-28-oic acid-28-N-(β-D-mannoside)] | – | – | – | inhibition at 50 µM ([1]; 50 μM): 48.2 ± 4.22%
24 | echinocystic acid [EA, reference compound] | – | some anti-influenza virus activity | – | Viral Infectivity (%) ([1]; Table 6, […]): 67.9%
